# Laboratory results published in patent US9061041B2, “2′-substituted nucleoside derivatives and methods of use thereof for the treatment of viral diseases” (Merck Sharp & Dohme Corp., priority 2011, dated 2015).
# What was measured:
# [1] = molecular target: HCV NS5B RNA-dependent RNA polymerase (1b-BKΔ55) (Hepatitis C virus genotype 1b (isolate BK) (HCV), UniProt P26663); test: biochemical
# [2] = test system: human cryopreserved hepatocyte; assay type: in vitro ADME; conditions: human hepatocytes, NTP level over Ki
# Method: A 2 mM stock solution of the prodrug test compound is prepared in 5% DMSO/95% MeOH to provide a final sample concentration of 10 μM. A 5 μL aliquot is removed from this stock solution and added to 1 mL of either a rat or human cryopreserved hepatocyte sample to provide a control sample at a concentration of 1 million cells/mL. This sample is assayed in triplicate and used as a test sample.
# Human and rat hepatocytes are removed from liquid nitrogen storage and thawed by submerging the hepatocyte tube into a pre-heated 37° C. waterbath and gently shaking the tube back & forth until thawed. The thawed hepatocytes are then gently poured into a container of Hepatocyte Basal Medium (50 mL, pre-warmed to 37° C.) and washed. […]
# A 1 mL aliquot is removed from the 1 million cells/mL final hepatocyte suspension, analyzed in triplicate and placed into 20 mL scintillation vial without a cap. […]
# The incubated hepatocyte suspension samples are transferred to a micro-centrifuge tube using a transfer pipette and centrifuged at 500 rpm for 4 minutes at room temperature. […] The resulting extract solution is then stored in a refrigerator at 4° C. until ready for use, at which point the sample is first subjected to vortexing/sonication to ensure that all hepatocyte cells have burst. […]
# replicon cells (1b-Con1) [3] = test: Replicon activity assay (1b-Con1); assay type: cell-based, HCV; conditions: Hepatitis C virus, 72 h, three days post-dosing
# replicon cells (1b-Con1) [4] = test: Cytotoxicity MTS assay in replicon cells; conditions: CC50, MTS assay, three days post dosing
# Chain of HCV NS5B RNA-dependent RNA polymerase (1b-BKΔ55) (P26663 2420-2955): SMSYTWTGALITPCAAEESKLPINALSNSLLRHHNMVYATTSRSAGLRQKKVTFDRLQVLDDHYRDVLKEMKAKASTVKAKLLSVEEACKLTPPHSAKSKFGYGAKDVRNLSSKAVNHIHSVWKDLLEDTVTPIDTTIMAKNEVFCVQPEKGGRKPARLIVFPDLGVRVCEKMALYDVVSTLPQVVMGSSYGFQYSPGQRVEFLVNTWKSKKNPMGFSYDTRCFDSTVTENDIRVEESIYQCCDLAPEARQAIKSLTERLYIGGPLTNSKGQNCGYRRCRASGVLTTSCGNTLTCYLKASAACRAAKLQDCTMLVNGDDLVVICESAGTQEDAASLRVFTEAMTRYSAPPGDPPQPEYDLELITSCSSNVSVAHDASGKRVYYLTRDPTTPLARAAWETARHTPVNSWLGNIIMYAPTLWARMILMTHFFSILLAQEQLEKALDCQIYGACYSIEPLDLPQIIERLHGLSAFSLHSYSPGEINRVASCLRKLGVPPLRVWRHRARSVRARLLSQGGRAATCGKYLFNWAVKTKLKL
Structure (SMILES),IC50 [1] [µM],EC50 (replicon cells (1b-Con1) [3]) [µM],Cytotoxicity (replicon cells (1b-Con1) [4]) [µM],also measured
C[C@@]1(N)[C@H](O)[C@@H](COP(=O)(O)OP(=O)(O)OP(=O)(O)O)O[C@H]1n1cnc2c(=O)[nH]c(N)nc21 [Compound 80],0.6,–,–,–
C[C@@]1(N)[C@H](O)[C@@H](COP(=O)(O)OP(=O)(O)OP(=O)(O)O)O[C@H]1n1ccc(N)nc1=O [Compound 81],2.3,–,–,–
CCOC(=O)[C@H](C)NP(=O)(OC[C@H]1O[C@@H](n2cnc3c(OC)nc(N)nc32)[C@](C)(N)[C@@H]1O)Oc1ccccc1 (some centres unmarked) [drawing 225],–,–,–,Human Hepatocyte NTP (4 hour at 10 μM)/Ki [2]: 32 x
CC(C)OC(=O)[C@H](C)NP(=O)(OC[C@H]1O[C@@H](n2ccc(=O)[nH]c2=O)[C@](C)(N)[C@@H]1O)Oc1ccccc1 (some centres unmarked) [drawing 226],–,–,–,Human Hepatocyte NTP (4 hour at 10 μM)/Ki [2]: 30 x
CC(C)COC(=O)[C@H](C)NP(=O)(OC[C@H]1O[C@@H](n2ccc(N)nc2=O)[C@](C)(N)[C@@H]1O)Oc1ccccc1 (some centres unmarked),–,6.6,50,–
C[C@@]1(N)[C@H](O)[C@@H](COP(=O)(O)OP(=O)(O)OP(=O)(O)O)O[C@H]1n1ccc(=O)[nH]c1=O [Compound 82],13,–,–,–
COc1nc(N)nc2c1ncn2[C@@H]1O[C@@H]2COP(=O)(OC(C)C)O[C@H]2[C@@]1(C)N (some centres unmarked) [drawing 240],–,43.7,>100,–
COc1nc(N)nc2c1ncn2[C@@H]1O[C@H](COP(=O)(N[C@@H](C)C(=O)OCC(C)(C)C)Oc2ccccc2)C(O)[C@@]1(C)N (some centres unmarked),–,0.9,>100,–
